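Cultured in 96-well plates, cells were exposed to test compound for 48 hours across five concentrations. TGI marks complete inhibition of growth.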
Key:
Test in all cases: growth of human tumour cells (NCI), 48 h
OVCAR-4 ovarian = system: OVCAR-4 ovarian
XF 498 CNS = system: XF 498 CNS
KM20L2 colon = system: KM20L2 colon
LOX IMVI melanoma = system: LOX IMVI melanoma
SF-268 CNS = system: SF-268 CNS
UACC-257 melanoma = system: UACC-257 melanoma
ACHN renal = system: ACHN renal
SF-539 CNS = system: SF-539 CNS
K-562 leukemia = system: K-562 leukemia
HCC-2998 colon = system: HCC-2998 colon
OVCAR-3 ovarian = system: OVCAR-3 ovarian
A498 renal = system: A498 renal
DLD-1 colon = system: DLD-1 colon
SW-620 colon = system: SW-620 colon
HL-60(TB) leukemia = system: HL-60(TB) leukemia
NCI-H226 lung = system: NCI-H226 lung
RPMI-8226 leukemia = system: RPMI-8226 leukemia
SK-MEL-28 melanoma = system: SK-MEL-28 melanoma
NCI-H460 lung = system: NCI-H460 lung
HOP-92 NSCLC = system: HOP-92 NSCLC
NCI-H23 lung = system: NCI-H23 lung
HT29 colon = system: HT29 colon
SNB-78 CNS = system: SNB-78 CNS
UACC-62 melanoma = system: UACC-62 melanoma
CCRF-CEM leukemia = system: CCRF-CEM leukemia
OVCAR-8 ovarian = system: OVCAR-8 ovarian
M19-MEL melanoma = system: M19-MEL melanoma
MOLT-4 leukemia = system: MOLT-4 leukemia
SN12C renal = system: SN12C renal
DMS 114 small cell lung = system: DMS 114 small cell lung
TK-10 renal = system: TK-10 renal
DMS 273 small cell lung = system: DMS 273 small cell lung
A549 NSCLC = system: A549 NSCLC
HOP-18 NSCLC = system: HOP-18 NSCLC
UO-31 renal = system: UO-31 renal
786-0 renal = system: 786-0 renal
HCT-15 colon = system: HCT-15 colon
LXFL 529 NSCLC = system: LXFL 529 NSCLC
NCI-H522 lung = system: NCI-H522 lung
SNB-19 CNS = system: SNB-19 CNS
OVCAR-5 ovarian = system: OVCAR-5 ovarian
CAKI-1 renal = system: CAKI-1 renal
IGROV1 ovarian = system: IGROV1 ovarian
SK-OV-3 ovarian = system: SK-OV-3 ovarian
MALME-3M melanoma = system: MALME-3M melanoma
U251 CNS = system: U251 CNS
KM12 colon = system: KM12 colon
SR leukemia = system: SR leukemia
HOP-62 NSCLC = system: HOP-62 NSCLC
M14 melanoma = system: M14 melanoma
EKVX NSCLC = system: EKVX NSCLC
HCT-116 colon = system: HCT-116 colon
SK-MEL-2 melanoma = system: SK-MEL-2 melanoma
SK-MEL-5 melanoma = system: SK-MEL-5 melanoma
SNB-75 CNS = system: SNB-75 CNS
RXF-631 renal = system: RXF-631 renal
SF-295 CNS = system: SF-295 CNS
COLO 205 colon = system: COLO 205 colon

Measured: TGI

COC(=O)/C(=N\NC(N)=O)C(C(=O)C(=O)Nc1ccccc1C(=O)OC)c1nc2ccc(C(=O)c3ccccc3)cc2[nH]c1=O (stereo not given)
not listed: COLO 205 colon
> 100 µM: all other assays above

CN(C)CCCN1N=Nc2cccc3cccc1c23
38.2 µM: 786-0 renal
51.4 µM: SR leukemia
58 µM: OVCAR-4 ovarian
> 89.1 µM: NCI-H460 lung
> 65.1 µM: K-562 leukemia
> 54.4 µM: SW-620 colon
> 87 µM: LXFL 529 NSCLC
39.8 µM: DMS 273 small cell lung
> 63.4 µM: CCRF-CEM leukemia
> 57.9 µM: DMS 114 small cell lung
> 63.6 µM: M14 melanoma
> 70.2 µM: COLO 205 colon
> 63.1 µM: HL-60(TB) leukemia
> 64.6 µM: HCT-116 colon
> 95.3 µM: M19-MEL melanoma
> 69.3 µM: RPMI-8226 leukemia
> 77.3 µM: MOLT-4 leukemia
> 57.5 µM: HCT-15 colon
> 100 µM: all other assays above
